The results in this text go back to patent US9527856B2, “Oxindole compounds carrying a CO-bound spiro substituent and use thereof for treating vasopressin-related diseases” (AbbVie Deutschland GmbH & Co. KG, priority 2014, dated 2016).

Assay [1] addresses human vasopressin V1a receptor (Homo sapiens, UniProt P37288). The experiment in a line: Vasopressin V1a receptor binding assay. Particulars: selectivity for human V1b over human V1a, quotient of binding constants.
Assay [2] addresses T1, human vasopressin V1b receptor (Homo sapiens, UniProt P47901).
T1 sequence (P47901 1-424): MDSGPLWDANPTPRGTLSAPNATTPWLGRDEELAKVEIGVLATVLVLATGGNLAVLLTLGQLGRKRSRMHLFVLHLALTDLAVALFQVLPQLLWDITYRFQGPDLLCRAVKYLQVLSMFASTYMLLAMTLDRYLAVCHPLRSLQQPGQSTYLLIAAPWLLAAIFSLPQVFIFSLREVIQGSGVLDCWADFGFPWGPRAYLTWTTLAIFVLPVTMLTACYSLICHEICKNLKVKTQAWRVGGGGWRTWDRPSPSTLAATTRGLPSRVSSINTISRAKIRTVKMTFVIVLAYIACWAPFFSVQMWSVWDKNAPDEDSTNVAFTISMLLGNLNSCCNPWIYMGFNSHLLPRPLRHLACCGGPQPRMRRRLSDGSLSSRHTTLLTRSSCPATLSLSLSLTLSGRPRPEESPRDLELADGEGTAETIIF
The experiment in a line: biochemical. To be noted: Ki(h-V1b)* [nM], CHO-K1 cell membranes, displacement of 3H-AVP. (In general: Displacement assays read how much labelled ligand stays bound in the presence of the test substance.)

For orientation: Ki means a dissociation constant, usually derived from enzyme kinetics or from competition with a known ligand. Lower therefore signals higher affinity.

Sequence of human vasopressin V1a receptor (P37288 whole entry): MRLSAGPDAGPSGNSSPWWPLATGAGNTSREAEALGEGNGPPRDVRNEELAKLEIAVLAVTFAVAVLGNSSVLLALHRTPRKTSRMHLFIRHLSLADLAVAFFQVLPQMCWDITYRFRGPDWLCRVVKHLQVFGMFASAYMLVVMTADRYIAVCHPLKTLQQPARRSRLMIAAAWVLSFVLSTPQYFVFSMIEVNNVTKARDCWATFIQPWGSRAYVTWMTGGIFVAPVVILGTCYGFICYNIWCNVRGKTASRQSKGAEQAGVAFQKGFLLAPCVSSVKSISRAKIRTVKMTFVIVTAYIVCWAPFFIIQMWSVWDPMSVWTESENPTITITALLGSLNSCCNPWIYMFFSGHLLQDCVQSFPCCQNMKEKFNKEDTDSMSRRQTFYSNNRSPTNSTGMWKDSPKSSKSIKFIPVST

For the molecule `CCOc1ncccc1[C@]1(NC(=O)N2CC3(CN(CCN4CCOCC4)C3)C2)C(=O)N(S(=O)(=O)c2ccc(OC)cc2F)c2ccc(C#N)cc21.O=C(O)C(F)(F)F` [Example 6, N-[(3S)-5-Cyano-3-(2-ethoxy-3-pyridyl)-1-(2-fluoro-4-methoxy-phenyl)sulfonyl-2-oxo-indolin-3-yl]-2-(2-morpholinoethyl)-2,6-diazaspiro[3.3]heptane-6-carboxamide; 2,2,2-trifluoroacetic acid], the “Ki(h-V1a)/Ki(h-V1b)” value in assay [1] is given as “++ (25-75)”. The molecule also had a Ki in assay [2] of 1 to 10 nM.

On to `CCOc1ncccc1[C@]1(NC(=O)N2CC3(CN(CCN4CCOCC4)C3)C2)C(=O)N(S(=O)(=O)c2ccc(OC)cc2OC)c2ccc(C#N)cc21` [Example 7, N-[(3S)-5-Cyano-1-(2,4-dimethoxyphenyl)sulfonyl-3-(2-ethoxy-3-pyridyl)-2-oxo-indolin-3-yl]-2-(2-morpholinoethyl)-2,6-diazaspiro[3.3]heptane-6-carboxamide], for which the “Ki(h-V1a)/Ki(h-V1b)” value in assay [1] was “++ (25-75)”. In assay [2], this molecule had a Ki of 1 to 10 nM.

As for `CCOc1ncccc1[C@]1(NC(=O)N2CC3(CN(CCN4CCOCC4)C3)C2)C(=O)N(S(=O)(=O)c2ccc(F)cc2)c2ccc(C#N)cc21` [Example 8, N-[(3S)-5-Cyano-3-(2-ethoxy-3-pyridyl)-1-(4-fluorophenyl)sulfonyl-2-oxo-indolin-3-yl]-2-(2-morpholinoethyl)-2,6-diazaspiro[3.3]heptane-6-carboxamide], the “Ki(h-V1a)/Ki(h-V1b)” value in assay [1] is recorded as “++ (25-75)”. This molecule registered a Ki in assay [2] of 10 to 100 nM.

In the case of `CCOc1ncccc1[C@]1(NC(=O)N2CC3(CN(CCN(CC)CC)C3)C2)C(=O)N(S(=O)(=O)c2ccc(OC)cc2)c2ccc(C#N)cc21` [Example 9, N-[(3S)-5-Cyano-3-(2-ethoxy-3-pyridyl)-1-(4-methoxyphenyl)sulfonyl-2-oxo-indolin-3-yl]-2-(2-diethylaminoethyl)-2,6-diazaspiro[3.3]heptane-6-carboxamide], the “Ki(h-V1a)/Ki(h-V1b)” value in assay [1] is on record as “+++ (>75)”. Also, in assay [2], the inhibitory constant (Ki) lay within 1 to 10 nM.

Consider `CCOc1ncccc1[C@]1(NC(=O)N2CC3(CN(CCN4CCOCC4)C3)C2)C(=O)N(S(=O)(=O)c2ccc(C)cc2)c2ccc(C#N)cc21.O=C(O)C(F)(F)F` [Example 10, N-[(3S)-5-Cyano-3-(2-ethoxy-3-pyridyl)-2-oxo-1-(p-tolylsulfonyl)indolin-3-yl]-2-(2-morpholinoethyl)-2,6-diazaspiro[3.3]heptane-6-carboxamide; 2,2,2-trifluoroacetic acid], for which, in assay [1], the “Ki(h-V1a)/Ki(h-V1b)” value is “++ (25-75)”. This molecule also showed an inhibition constant (Ki) in assay [2] of 1 to 10 nM.

For `CCOc1ncccc1[C@]1(NC(=O)N2CC3(CN(CCN4CCOCC4)C3)C2)C(=O)N(S(=O)(=O)c2ccccc2OC)c2ccc(C#N)cc21.O=C(O)C(F)(F)F` [Example 11, N-[(3S)-5-Cyano-3-(2-ethoxy-3-pyridyl)-1-(2-methoxyphenyl)sulfonyl-2-oxo-indolin-3-yl]-2-(2-morpholinoethyl)-2,6-diazaspiro[3.3]heptane-6-carboxamide; 2,2,2-trifluoroacetic acid], in assay [1], the “Ki(h-V1a)/Ki(h-V1b)” value is on record as “+++ (>75)”. Moreover, the inhibition constant Ki in assay [2] fell in the range of 1 to 10 nM.

Take `COc1ccc(S(=O)(=O)N2C(=O)[C@@](NC(=O)N3CC4(CN(CCN5CCOCC5)C4)C3)(c3cccnc3OC)c3cc(C#N)ccc32)cc1.O=C(O)C(F)(F)F` [Example 12, N-[(3S)-5-Cyano-1-(4-methoxyphenyl)sulfonyl-3-(2-methoxy-3-pyridyl)-2-oxo-indolin-3-yl]-2-(2-morpholinoethyl)-2,6-diazaspiro[3.3]heptane-6-carboxamide; 2,2,2-trifluoroacetic acid]: the “Ki(h-V1a)/Ki(h-V1b)” value in assay [1] is “+ (10-<25)”. The Ki in assay [2] was in the range of 1 to 10 nM.

With `CCOc1ncccc1[C@]1(NC(=O)N2CC3(CN(CCN4CCCCC4)C3)C2)C(=O)N(S(=O)(=O)c2ccc(OC)cc2)c2ccc(C#N)cc21` [Example 13, N-[(3S)-5-Cyano-3-(2-ethoxy-3-pyridyl)-1-(4-methoxyphenyl)sulfonyl-2-oxo-indolin-3-yl]-2-[2-(1-piperidyl)ethyl]-2,6-diazaspiro[3.3]heptane-6-carboxamide], the “Ki(h-V1a)/Ki(h-V1b)” value in assay [1] is recorded as “++ (25-75)”. For the same molecule, the Ki in assay [2] was under 1 nM.

For the molecule `CCOc1ncccc1[C@]1(NC(=O)N2CC3(CN(CCN4CCOCC4)C3)C2)C(=O)N(S(=O)(=O)c2ccccc2OC)c2ccc(C#N)cc21` [Example 14, N-[(3S)-5-Cyano-3-(2-ethoxy-3-pyridyl)-1-(2-methoxyphenyl)sulfonyl-2-oxo-indolin-3-yl]-2-(2-morpholinoethyl)-2,6-diazaspiro[3.3]heptane-6-carboxamide], the “Ki(h-V1a)/Ki(h-V1b)” value in assay [1] was “+++ (>75)”. The molecule also displayed a Ki in assay [2] of 10 to 100 nM.

Consider `CCOc1ncccc1[C@]1(NC(=O)N2CC3(CN(CCN4CCOCC4)C3)C2)C(=O)N(S(=O)(=O)c2ccc(OC)cc2OC)c2ccc(C#N)cc21` [Example 15, N-[(3S)-5-Cyano-1-(2,4-dimethoxyphenyl)sulfonyl-3-(2-ethoxy-3-pyridyl)-2-oxo-indolin-3-yl]-2-(2-morpholinoethyl)-2,6-diazaspiro[3.3]heptane-6-carboxamide], for which the “Ki(h-V1a)/Ki(h-V1b)” value in assay [1] is recorded as “+++ (>75)”. Further, the Ki in assay [2] is under 1 nM.

For the molecule `CCOc1ncccc1[C@]1(NC(=O)N2CC3(CN(CCN4CCOCC4)C3)C2)C(=O)N(S(=O)(=O)c2ccc(F)cc2OC)c2ccc(C#N)cc21` [Example 17, N-[(3S)-5-Cyano-3-(2-ethoxy-3-pyridyl)-1-(4-fluoro-2-methoxy-phenyl)sulfonyl-2-oxo-indolin-3-yl]-2-(2-morpholinoethyl)-2,6-diazaspiro[3.3]heptane-6-carboxamide], the “Ki(h-V1a)/Ki(h-V1b)” value in assay [1] was “++ (25-75)”. Further, the inhibitory constant (Ki) in assay [2] was in the range of 1 to 10 nM.

For `CCOc1ncccc1[C@]1(NC(=O)N2CC3(CN(CCN4CCOCC4)C3)C2)C(=O)N(S(=O)(=O)c2ccc(OC)cc2F)c2ccc(C#N)cc21` [Example 18, N-[(3S)-5-Cyano-3-(2-ethoxy-3-pyridyl)-1-(2-fluoro-4-methoxy-phenyl)sulfonyl-2-oxo-indolin-3-yl]-2-(2-morpholinoethyl)-2,6-diazaspiro[3.3]heptane-6-carboxamide], in assay [1], the “Ki(h-V1a)/Ki(h-V1b)” value is recorded as “+++ (>75)”. The molecule also registered an inhibition constant Ki in assay [2] of under 1 nM.

For `CCOc1ncccc1[C@]1(NC(=O)N2CC3(CN(CCN4CCOCC4)C3)C2)C(=O)N(S(=O)(=O)c2ccc(OC)cc2)c2cc(F)c(C#N)cc21` [Example 19, N-[(3S)-5-Cyano-3-(2-ethoxy-3-pyridyl)-6-fluoro-1-(4-methoxyphenyl)sulfonyl-2-oxo-indolin-3-yl]-2-(2-morpholinoethyl)-2,6-diazaspiro[3.3]heptane-6-carboxamide], the “Ki(h-V1a)/Ki(h-V1b)” value in assay [1] was “+++ (>75)”. Besides, the Ki in assay [2] lay in the range of 1 to 10 nM.

`CCOc1ncccc1[C@]1(NC(=O)N2CC3(CC(OCCN4CCOCC4)C3)C2)C(=O)N(S(=O)(=O)c2ccc(OC)cc2)c2ccc(C#N)cc21` [Example 21A, N-[(3S)-5-Cyano-3-(2-ethoxy-3-pyridyl)-1-(4-methoxyphenyl)sulfonyl-2-oxo-indolin-3-yl]-2-(2-morpholinoethoxy)-6-azaspiro[3.3]heptane-6-carboxamide]: in assay [1], the “Ki(h-V1a)/Ki(h-V1b)” value is listed as “+++ (>75)”. Further, the inhibition constant Ki in assay [2] fell in the range of 10 to 100 nM.

As to `CCOc1ncccc1[C@]1(NC(=O)N2CC3(C2)CN(C2CCN(C(C)C)CC2)C3)C(=O)N(S(=O)(=O)c2ccc(C#N)cc2)c2ccc(C#N)cc21` [Example 24, N-[(3S)-5-cyano-1-(4-cyanophenyl)sulfonyl-3-(2-ethoxy-3-pyridyl)-2-oxo-indolin-3-yl]-2-(1-isopropyl-4-piperidyl)-2,6-diazaspiro[3.3]heptane-6-carboxamide], the “Ki(h-V1a)/Ki(h-V1b)” value in assay [1] is reported as “+++ (>75)”. In addition, the inhibitory constant (Ki) in assay [2] is 10 to 100 nM.

Consider `CCOc1ncccc1[C@]1(NC(=O)N2CC3(C2)CN(C2CCN(C(C)C)CC2)C3)C(=O)N(S(=O)(=O)c2ccc(C)cc2)c2ccc(C#N)cc21` [Example 25, N-[(3S)-5-Cyano-3-(2-ethoxy-3-pyridyl)-2-oxo-1-(p-tolylsulfonyl)indolin-3-yl]-2-(1-isopropyl-4-piperidyl)-2,6-diazaspiro[3.3]heptane-6-carboxamide], for which, in assay [1], the “Ki(h-V1a)/Ki(h-V1b)” value is listed as “++ (25-75)”. The molecule also displayed a Ki in assay [2] of 10 to 100 nM.

On to `CCOc1ncccc1[C@]1(NC(=O)N2CC3(C2)CN(C2CCN(C(C)C)CC2)C3)C(=O)N(S(=O)(=O)c2ccc(F)cc2)c2ccc(C#N)cc21` [Example 27, N-[(3S)-5-Cyano-3-(2-ethoxy-3-pyridyl)-1-(4-fluorophenyl)sulfonyl-2-oxo-indolin-3-yl]-2-(1-isopropyl-4-piperidyl)-2,6-diazaspiro[3.3]heptane-6-carboxamide], for which, in assay [1], the “Ki(h-V1a)/Ki(h-V1b)” value is recorded as “+++ (>75)”. The Ki in assay [2] was 10 to 100 nM.

For the molecule `CCOc1ncccc1[C@]1(NC(=O)N2CC3(C2)CN(C2CCN(C(C)C)CC2)C3)C(=O)N(S(=O)(=O)c2ccc(OC)cc2)c2ccc(C#N)cc21` [Example 29, N-[(3S)-5-Cyano-3-(2-ethoxy-3-pyridyl)-1-(4-methoxyphenyl)sulfonyl-2-oxo-indolin-3-yl]-2-(1-isopropyl-4-piperidyl)-2,6-diazaspiro[3.3]heptane-6-carboxamide], the “Ki(h-V1a)/Ki(h-V1b)” value in assay [1] was “+++ (>75)”. Also, the Ki in assay [2] was in the range of 1 to 10 nM.

As to `CCOc1ncccc1[C@]1(NC(=O)N2CC3(C2)CN(C2CCN(C)CC2)C3)C(=O)N(S(=O)(=O)c2ccccc2OC)c2ccc(C#N)cc21` [Example 32, N-[(3S)-5-Cyano-3-(2-ethoxy-3-pyridyl)-1-(2-methoxyphenyl)sulfonyl-2-oxo-indolin-3-yl]-2-(1-methyl-4-piperidyl)-2,6-diazaspiro[3.3]heptane-6-carboxamide], the “Ki(h-V1a)/Ki(h-V1b)” value in assay [1] is on record as “++ (25-75)”. Besides, in assay [2], the inhibition constant Ki fell in the range of 10 to 100 nM.
